According to ChEMBL document CHEMBL2177007, “Indole-derived psammaplin A analogues as epigenetic modulators with multiple inhibitory activities” (J Med Chem, 2012):
Active and inactive are the calls of the source. The calls are words filed in the database; no cut-off is given here.

Columns and labels:
[1] = system: U-937; experiment: Effect on DNMT1 level in human U937 cells at 0.5 to 5 uM after 24 hrs by Western blot analysis; format: functional, cell-based
[2] = system: U-937; experiment: Induction of apoptosis in human U937 cells at 5 uM after 30 hrs; format: functional, cell-based
[3] = molecular target: DNA (cytosine-5)-methyltransferase 1 (Homo sapiens) (UniProt P26358); experiment: Inhibition of DNMT1 human u937 cells assessed as reactivation of p16 expression at 0.5 to 5 uM after 24 hrs by Western blot analysis
[4] = molecular target: T1, NAD-dependent protein deacetylase sirtuin-1 (Homo sapiens) (UniProt Q96EB6); experiment: Inhibition of SIRT1 in human U937 cells assessed as H3 acetylation on lysine K56 at 5 uM after 24 hrs by Western blot analysis; format: cell-based; settings: U-937
T1 sequence (whole entry): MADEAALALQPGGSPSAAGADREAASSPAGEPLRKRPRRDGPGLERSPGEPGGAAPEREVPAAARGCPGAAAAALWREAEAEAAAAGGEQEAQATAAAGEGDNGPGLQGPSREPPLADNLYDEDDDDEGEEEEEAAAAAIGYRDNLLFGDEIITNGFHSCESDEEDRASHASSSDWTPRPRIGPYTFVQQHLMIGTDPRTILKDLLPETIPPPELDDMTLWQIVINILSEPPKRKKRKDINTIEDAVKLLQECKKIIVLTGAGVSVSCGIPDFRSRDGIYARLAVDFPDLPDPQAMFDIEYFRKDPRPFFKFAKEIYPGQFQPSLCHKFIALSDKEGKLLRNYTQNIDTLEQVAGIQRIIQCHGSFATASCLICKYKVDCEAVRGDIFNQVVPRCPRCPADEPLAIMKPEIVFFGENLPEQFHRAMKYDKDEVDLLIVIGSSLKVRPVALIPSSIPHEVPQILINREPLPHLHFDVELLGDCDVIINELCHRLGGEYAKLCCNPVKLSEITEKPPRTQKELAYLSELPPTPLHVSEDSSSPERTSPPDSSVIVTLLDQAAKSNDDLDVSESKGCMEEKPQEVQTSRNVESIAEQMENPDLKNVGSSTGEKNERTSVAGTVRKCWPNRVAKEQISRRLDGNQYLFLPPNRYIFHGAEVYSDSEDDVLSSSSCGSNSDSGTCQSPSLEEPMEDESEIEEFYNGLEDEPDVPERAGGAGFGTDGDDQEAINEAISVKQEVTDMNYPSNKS

[5] = molecular target: Histone deacetylase (Homo sapiens) (UniProt Q13547+O15379+Q9UBN7+Q92769+Q9UQL6+Q8WUI4+Q9BY41+Q96DB2+P56524+Q9UKV0+Q969S8); experiment: Inhibition of HDAC in human U937 cells assessed as induction of histone H3 acetylation at 5 uM after 30 hrs by cytofluorimetric analysis; format: cell-based; settings: U-937
[6] = molecular target: T2, Protein deacetylase HDAC6 (Homo sapiens) (UniProt Q9UBN7); experiment: Inhibition of HDAC6 in human U937 cells assessed as induction of alpha-tubulin acetylation at 5 uM after 30 hrs by cytofluorimetric analysis; format: cell-based; settings: U-937
T2 sequence (whole entry): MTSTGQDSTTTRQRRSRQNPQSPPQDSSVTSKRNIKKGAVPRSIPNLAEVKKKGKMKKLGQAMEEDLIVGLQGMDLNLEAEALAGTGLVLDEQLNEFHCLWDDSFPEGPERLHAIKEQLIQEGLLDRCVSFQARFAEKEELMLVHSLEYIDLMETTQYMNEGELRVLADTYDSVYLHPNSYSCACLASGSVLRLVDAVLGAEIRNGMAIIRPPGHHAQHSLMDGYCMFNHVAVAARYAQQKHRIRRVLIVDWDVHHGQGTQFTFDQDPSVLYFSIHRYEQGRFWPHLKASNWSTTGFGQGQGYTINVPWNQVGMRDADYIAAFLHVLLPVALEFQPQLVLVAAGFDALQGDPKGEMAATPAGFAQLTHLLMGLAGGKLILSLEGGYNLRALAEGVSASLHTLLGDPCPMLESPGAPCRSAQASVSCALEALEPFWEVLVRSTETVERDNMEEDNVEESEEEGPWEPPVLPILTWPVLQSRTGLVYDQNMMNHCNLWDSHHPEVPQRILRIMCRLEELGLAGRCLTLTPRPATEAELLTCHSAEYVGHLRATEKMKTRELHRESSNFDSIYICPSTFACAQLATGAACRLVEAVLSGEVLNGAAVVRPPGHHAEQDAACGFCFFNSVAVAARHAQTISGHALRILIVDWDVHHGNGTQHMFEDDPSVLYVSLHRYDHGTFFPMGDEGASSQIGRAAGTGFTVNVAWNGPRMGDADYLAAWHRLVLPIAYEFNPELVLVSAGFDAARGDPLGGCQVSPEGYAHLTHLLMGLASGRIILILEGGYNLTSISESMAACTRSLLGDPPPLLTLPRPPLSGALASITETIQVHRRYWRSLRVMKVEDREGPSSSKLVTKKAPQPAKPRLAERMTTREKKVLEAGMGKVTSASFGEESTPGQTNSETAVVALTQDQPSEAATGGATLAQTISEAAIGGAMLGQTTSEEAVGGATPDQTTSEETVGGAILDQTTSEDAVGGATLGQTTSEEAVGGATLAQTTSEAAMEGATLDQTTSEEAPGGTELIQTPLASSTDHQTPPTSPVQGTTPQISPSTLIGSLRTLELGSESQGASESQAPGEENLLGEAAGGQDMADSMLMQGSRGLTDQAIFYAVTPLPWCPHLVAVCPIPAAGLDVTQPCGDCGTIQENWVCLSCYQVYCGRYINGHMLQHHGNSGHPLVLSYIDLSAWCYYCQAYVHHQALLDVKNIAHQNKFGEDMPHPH

[7] = molecular target: Histone deacetylase 1 (Homo sapiens) (UniProt Q13547); experiment: Inhibition of HDAC1 in human U937 cells at 5 uM […]; format: cell-based; settings: U-937
[8] = system: U-937; experiment: Induction of cell differentiation in human U937 cells assessed as CD11c expression at 5 uM after 30 hrs by cytofluorimetric analysis; format: functional, cell-based
[9] = molecular target: T1, NAD-dependent protein deacetylase sirtuin-1 (Homo sapiens); experiment: Inhibition of SIRT1 in human MCF7 cells assessed as p53 acetylation on lysine 382 at 5 uM after 24 hrs by Western blot analysis; format: cell-based
[10] = molecular target: Histone deacetylase 4 (Homo sapiens) (UniProt P56524); experiment: Inhibition of HDAC4 in human U937 cells at 5 uM […]; format: cell-based; settings: U-937
[11] = molecular target: T1, NAD-dependent protein deacetylase sirtuin-1 (Homo sapiens); experiment: Inhibition of human recombinant SIRT1 using KI-177 as substrate at 5 uM after 30 mins by fluorescence assay
[12] = molecular target: T1, NAD-dependent protein deacetylase sirtuin-1 (Homo sapiens); experiment: Inhibition of SIRT1 in human U937 cells assessed as H3 acetylation on lysine K9 at 5 uM after 24 hrs by Western blot analysis; format: cell-based; settings: U-937
[13] = molecular target: DNA (cytosine-5)-methyltransferase 1 (Homo sapiens) (UniProt P26358); experiment: Inhibition of recombinant DNMT1 using S-adenosyl-L-[methyl-3H]methionine as substrate at 5 uM after 2 hrs by radioactive assay
[14] = molecular target: DNA (cytosine-5)-methyltransferase 1 (Homo sapiens) (UniProt P26358); experiment: Inhibition of DNMT1 human U937 cells assessed as reactivation of p16 expression at 5 uM after 24 hrs by Western blot analysis; format: cell-based; settings: U-937
[15] = molecular target: Protein kinase C alpha type (Homo sapiens) (UniProt P17252); experiment: Inhibition of PKCalpha in human U937 cells assessed as p21WAF1/CIP1 expression at 5 uM after 30 hrs by cytofluorimetric analysis; format: cell-based; settings: U-937
[16] = molecular target: T1, NAD-dependent protein deacetylase sirtuin-1 (Homo sapiens); experiment: Inhibition of SIRT1 in human MCF7 cells assessed as p53 acetylation on lysine 382 after 24 hrs by Western blot analysis; format: cell-based

Sequence of Histone deacetylase 4 (Homo sapiens) (P56524 whole entry): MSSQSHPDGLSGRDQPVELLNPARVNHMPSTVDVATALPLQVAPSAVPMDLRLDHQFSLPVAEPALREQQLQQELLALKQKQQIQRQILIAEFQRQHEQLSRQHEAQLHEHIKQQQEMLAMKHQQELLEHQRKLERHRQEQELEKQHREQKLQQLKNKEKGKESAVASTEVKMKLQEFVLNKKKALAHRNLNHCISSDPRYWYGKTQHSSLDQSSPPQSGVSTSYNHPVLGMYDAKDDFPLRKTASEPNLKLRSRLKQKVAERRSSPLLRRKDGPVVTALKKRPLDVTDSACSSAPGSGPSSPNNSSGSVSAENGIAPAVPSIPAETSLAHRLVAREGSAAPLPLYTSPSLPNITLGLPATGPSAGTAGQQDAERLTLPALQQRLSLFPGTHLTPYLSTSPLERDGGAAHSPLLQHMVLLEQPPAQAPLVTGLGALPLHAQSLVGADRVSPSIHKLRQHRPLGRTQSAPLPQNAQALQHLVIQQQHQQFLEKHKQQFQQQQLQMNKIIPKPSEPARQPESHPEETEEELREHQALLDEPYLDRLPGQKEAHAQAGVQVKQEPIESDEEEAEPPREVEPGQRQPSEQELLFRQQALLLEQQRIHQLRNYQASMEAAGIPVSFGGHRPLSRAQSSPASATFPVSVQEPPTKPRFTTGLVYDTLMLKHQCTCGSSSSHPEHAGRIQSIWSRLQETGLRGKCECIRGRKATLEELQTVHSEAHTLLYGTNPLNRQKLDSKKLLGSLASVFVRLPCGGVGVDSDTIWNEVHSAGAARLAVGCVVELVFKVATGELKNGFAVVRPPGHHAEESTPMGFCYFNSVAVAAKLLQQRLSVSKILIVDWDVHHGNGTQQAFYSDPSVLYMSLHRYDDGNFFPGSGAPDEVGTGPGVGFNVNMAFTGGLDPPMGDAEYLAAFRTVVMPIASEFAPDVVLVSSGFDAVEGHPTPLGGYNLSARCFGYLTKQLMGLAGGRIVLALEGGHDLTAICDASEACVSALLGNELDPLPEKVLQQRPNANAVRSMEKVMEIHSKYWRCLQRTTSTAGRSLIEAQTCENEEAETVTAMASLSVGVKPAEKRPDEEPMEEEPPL
Sequence of Histone deacetylase 1 (Homo sapiens) (Q13547 whole entry): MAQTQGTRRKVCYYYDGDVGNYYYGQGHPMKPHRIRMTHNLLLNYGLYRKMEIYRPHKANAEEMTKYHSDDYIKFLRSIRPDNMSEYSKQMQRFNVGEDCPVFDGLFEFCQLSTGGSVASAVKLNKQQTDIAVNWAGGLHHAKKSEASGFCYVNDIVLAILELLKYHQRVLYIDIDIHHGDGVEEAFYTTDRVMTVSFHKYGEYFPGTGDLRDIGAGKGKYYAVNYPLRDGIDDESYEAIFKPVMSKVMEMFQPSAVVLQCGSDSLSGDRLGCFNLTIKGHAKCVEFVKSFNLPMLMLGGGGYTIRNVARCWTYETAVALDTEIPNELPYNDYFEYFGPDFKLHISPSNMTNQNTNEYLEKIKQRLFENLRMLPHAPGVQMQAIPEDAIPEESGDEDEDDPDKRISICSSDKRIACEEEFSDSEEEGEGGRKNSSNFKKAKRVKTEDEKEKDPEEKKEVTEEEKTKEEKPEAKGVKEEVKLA
Sequence of DNA (cytosine-5)-methyltransferase 1 (Homo sapiens) (P26358 whole entry): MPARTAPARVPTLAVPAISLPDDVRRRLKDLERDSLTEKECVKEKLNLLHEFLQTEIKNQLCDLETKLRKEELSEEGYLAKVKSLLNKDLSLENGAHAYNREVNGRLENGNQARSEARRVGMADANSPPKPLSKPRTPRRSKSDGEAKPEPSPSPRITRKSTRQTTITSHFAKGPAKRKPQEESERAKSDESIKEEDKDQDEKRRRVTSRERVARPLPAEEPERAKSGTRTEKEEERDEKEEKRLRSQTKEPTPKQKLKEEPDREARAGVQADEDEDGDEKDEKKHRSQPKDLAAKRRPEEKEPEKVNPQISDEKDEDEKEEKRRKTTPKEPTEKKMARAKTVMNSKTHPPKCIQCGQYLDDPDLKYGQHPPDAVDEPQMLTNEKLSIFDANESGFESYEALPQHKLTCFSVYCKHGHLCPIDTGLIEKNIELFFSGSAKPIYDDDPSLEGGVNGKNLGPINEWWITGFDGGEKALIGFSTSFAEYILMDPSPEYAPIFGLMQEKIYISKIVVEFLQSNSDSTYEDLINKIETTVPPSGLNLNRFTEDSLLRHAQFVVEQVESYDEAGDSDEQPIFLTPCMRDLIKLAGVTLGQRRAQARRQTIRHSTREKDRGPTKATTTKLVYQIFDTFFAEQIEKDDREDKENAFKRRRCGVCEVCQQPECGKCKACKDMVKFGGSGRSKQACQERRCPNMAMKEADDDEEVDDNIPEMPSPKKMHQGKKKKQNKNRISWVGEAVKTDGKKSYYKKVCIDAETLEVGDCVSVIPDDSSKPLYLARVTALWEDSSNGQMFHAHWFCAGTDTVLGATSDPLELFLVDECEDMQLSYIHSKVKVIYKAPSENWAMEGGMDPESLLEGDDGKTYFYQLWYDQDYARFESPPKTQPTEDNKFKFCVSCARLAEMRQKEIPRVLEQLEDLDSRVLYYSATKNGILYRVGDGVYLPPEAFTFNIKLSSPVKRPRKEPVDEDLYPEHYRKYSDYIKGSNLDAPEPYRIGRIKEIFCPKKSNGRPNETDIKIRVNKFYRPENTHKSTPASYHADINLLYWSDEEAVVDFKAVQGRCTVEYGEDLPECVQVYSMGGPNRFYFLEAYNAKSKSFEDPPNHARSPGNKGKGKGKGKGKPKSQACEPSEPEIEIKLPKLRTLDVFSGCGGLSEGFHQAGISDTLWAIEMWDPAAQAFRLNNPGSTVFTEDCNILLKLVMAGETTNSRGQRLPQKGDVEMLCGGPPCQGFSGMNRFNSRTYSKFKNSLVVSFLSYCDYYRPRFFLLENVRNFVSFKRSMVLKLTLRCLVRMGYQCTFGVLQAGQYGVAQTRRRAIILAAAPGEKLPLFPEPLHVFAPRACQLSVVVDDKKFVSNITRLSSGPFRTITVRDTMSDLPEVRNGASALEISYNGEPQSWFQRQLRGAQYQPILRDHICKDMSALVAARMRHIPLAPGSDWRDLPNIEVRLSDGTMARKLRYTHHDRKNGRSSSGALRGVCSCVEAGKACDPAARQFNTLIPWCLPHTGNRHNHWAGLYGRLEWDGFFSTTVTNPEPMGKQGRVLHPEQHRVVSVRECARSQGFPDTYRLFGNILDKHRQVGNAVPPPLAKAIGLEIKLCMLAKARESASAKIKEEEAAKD

Row | SMILES | inhibition [5] | inhibition [6] | inhibition [7] | inhibition [10] | inhibition [11] | inhibition [15] | Activity [1] | Activity [2] | also measured
1 | O=C(NCCSSCCNC(=O)/C(Cc1c[nH]c2ccc(OCc3ccccc3)cc12)=N/O)/C(Cc1c[nH]c2ccc(OCc3ccccc3)cc12)=N/O | Active | Active | Active | Active |  | Active | inactive | Active | inhibition [13]: Active; inhibition [14]: Active; Activity [8]: Active; inhibition [16]: Dose-dependent effect
2 | O=C(NCCCCCCCCNC(=O)/C(Cc1c[nH]c2ccc(Br)cc12)=N/O)/C(Cc1c[nH]c2ccc(Br)cc12)=N/O |  | Active |  |  | Active |  | inactive |  | inhibition [13]: inactive; inhibition [3]: Active; inhibition [4]: Active; inhibition [12]: Active
3 | CO/N=C(\Cc1c[nH]c2ccc(Br)cc12)C(=O)NCCSSCCNC(=O)/C(Cc1c[nH]c2ccc(Br)cc12)=N/OC |  | Active | Active | Active |  |  | inactive |  | inhibition [13]: Active; inhibition [3]: Active
4 | Cn1cc(CCC(=O)NCCSSCCNC(=O)CCc2cn(C)c3ccc(Br)cc23)c2cc(Br)ccc21 |  | Active |  |  |  |  |  |  | 
5 | O=C(CCc1c[nH]c2ccc(Br)cc12)NCCSSCCNC(=O)CCc1c[nH]c2ccc(Br)cc12 | Active | Active | Active |  |  | Active | inactive | Active | inhibition [13]: inactive; inhibition [16]: Dose-dependent effect
6 | O=C(O)[C@H](Cc1c[nH]c2ccccc12)N1C(=O)c2ccccc2C1=O |  |  |  |  |  |  |  |  | inhibition [13]: Active
7 | O=C(NCCO)/C(Cc1c[nH]c2ccc(Br)cc12)=N/O |  | Active |  |  | inactive |  | inactive |  | inhibition [4]: inactive; inhibition [14]: Active; inhibition [12]: inactive; inhibition [16]: Dose-dependent effect
8 | O=C(NCCSSCCNC(=O)/C(Cc1c[nH]c2ccc(Br)cc12)=N/OCc1ccccc1)/C(Cc1c[nH]c2ccc(Br)cc12)=N/OCc1ccccc1 |  | Active |  |  |  |  |  |  | 
9 | COCCNC(=O)/C(Cc1c[nH]c2ccc(Br)cc12)=N/O |  | Active |  |  | inactive |  | inactive |  | inhibition [4]: inactive; inhibition [12]: inactive
10 | O=C(NCCSSCCNC(=O)/C(Cc1cn(Cc2ccc(Br)cc2)c2ccc(Br)cc12)=N/O)/C(Cc1cn(Cc2ccc(Br)cc2)c2ccc(Br)cc12)=N/O |  | Active |  |  | Active |  | inactive |  | inhibition [4]: Active; inhibition [12]: Active

Further lines, with some results ahead:

Row | inhibition [5] | inhibition [6] | inhibition [7] | inhibition [10] | inhibition [11] | inhibition [15] | SMILES | Activity [1] | Activity [2] | also measured
11 | inactive | Active | 40% | 20% | inactive |  | O=C(NCCCCSSCCCCNC(=O)/C(Cc1c[nH]c2ccc(Br)cc12)=N/O)/C(Cc1c[nH]c2ccc(Br)cc12)=N/O | inactive | Active | inhibition [3]: Active; inhibition [4]: Active; Activity [8]: Active; inhibition [9]: inactive; inhibition [12]: Active
12 | inactive | inactive | Active | Active |  | inactive | O=C(NCCSSCCNC(=O)/C(Cc1c[nH]c2ccc(F)cc12)=N/O)/C(Cc1c[nH]c2ccc(F)cc12)=N/O |  | Active | 
13 | Active | Active | Active | Active |  | Active | O=C(NCCSSCCNC(=O)/C(Cc1c[nH]c2ccc(I)cc12)=N/O)/C(Cc1c[nH]c2ccc(I)cc12)=N/O |  | Active | 
14 | Active | Active | Active | Active |  | Active | O=C(NCCSSCCNC(=O)/C(Cc1c[nH]c2ccc(Cl)cc12)=N/O)/C(Cc1c[nH]c2ccc(Cl)cc12)=N/O |  | Active | 
15 | Active | Active | Active | Active |  | Active | COc1ccc2[nH]cc(C/C(=N\O)C(=O)NCCSSCCNC(=O)/C(Cc3c[nH]c4ccc(OC)cc34)=N/O)c2c1 |  | Active | Activity [8]: Active
16 | Active | Active | 40% | 20% | Active | Active | O=C(NCCSSCCNC(=O)/C(Cc1c[nH]c2ccccc12)=N/O)/C(Cc1c[nH]c2ccccc12)=N/O | inactive |  | inhibition [9]: Active
17 |  | Active | 40% | 20% |  |  | O=C(NCCCCCSSCCCCCNC(=O)/C(Cc1c[nH]c2ccc(Br)cc12)=N/O)/C(Cc1c[nH]c2ccc(Br)cc12)=N/O |  |  | 
18 |  | Active |  |  |  |  | O=C(NCCSSCCNC(=O)/C(Cc1c[nH]c2cccc(Br)c12)=N/O)/C(Cc1c[nH]c2cccc(Br)c12)=N/O |  |  | 
19 |  | Active |  |  |  |  | O=C(NCCCSSCCCNC(=O)/C(Cc1c[nH]c2ccc(Br)cc12)=N/O)/C(Cc1c[nH]c2ccc(Br)cc12)=N/O |  |  | Activity [8]: Active
